Measured values published in PMC7926627, “Fine-Tuning the Biological Profile of Multitarget Mitochondriotropic Antioxidants for Neurodegenerative Diseases” (Antioxidants, 2021).

Tests used:
hBChE = target: T1, hBChE (Homo sapiens, UniProt P06276, N45Q/N483Q/N509Q/N514Q); assay: Recombinant hBChE inhibition, Ellman's buffer; format: biochemical
T1 construct: made in house
Description: Recombinant hAChE and hBChE were produced and purified as previously described. Test compounds were dissolved in methanol 100 % to prepare stock solutions at 40 mM and subsequently diluted in water to reach the desired concentrations. Recombinant hAChE and hBChE activities were measured in presence of appropriate compound concentrations by spectrophotometry at 412 nm and 25 °C in a 1 mL cuvette containing Ellman’s buffer (0.5 mM DTNB, 0.1% BSA, 0.1 M phosphate, pH 7.4). Measurements were performed at least in duplicate for each tested concentration and final methanol concentrations were kept below 5%.

hMAO-A = target: T2, hMAO-A (Homo sapiens, UniProt P21397); assay: hMAO-A inhibition, kynuramine substrate; format: biochemical
T2 construct: purchased Sigma Aldrich; host or cells: insect cells (BTI-TN-5B1-4), baculovirus
T2 sequence (P21397 1-527): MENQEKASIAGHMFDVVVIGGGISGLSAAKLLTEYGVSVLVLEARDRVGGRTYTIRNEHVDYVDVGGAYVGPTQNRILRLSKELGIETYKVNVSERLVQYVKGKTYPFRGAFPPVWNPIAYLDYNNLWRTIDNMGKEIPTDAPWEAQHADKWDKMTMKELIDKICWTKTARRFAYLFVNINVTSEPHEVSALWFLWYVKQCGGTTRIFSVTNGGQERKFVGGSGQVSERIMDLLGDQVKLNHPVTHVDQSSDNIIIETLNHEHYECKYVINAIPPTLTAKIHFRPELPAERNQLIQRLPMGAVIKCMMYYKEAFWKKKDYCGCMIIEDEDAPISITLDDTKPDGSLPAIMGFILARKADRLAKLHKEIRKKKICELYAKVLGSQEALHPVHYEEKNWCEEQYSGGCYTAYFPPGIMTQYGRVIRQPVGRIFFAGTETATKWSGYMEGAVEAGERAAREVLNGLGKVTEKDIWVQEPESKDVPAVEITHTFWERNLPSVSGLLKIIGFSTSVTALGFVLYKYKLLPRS
Description: The inhibitory activity of lipophilic TPP^+ cations on hMAO-A and hMAO-B was studied using an experimental protocol described elsewhere [29, 40]
Evaluation of human monoamine oxidase (hMAO) inhibitory activity The human monoamine oxidase (hMAO) inhibitory outline was assessed in microsomal MAO isoforms prepared from insect cells (BTI-TN-5B1-4) infected with recombinant baculovirus containing cDNA inserts for hMAO-A or hMAO-B an d by measuring the enzymatic conversion rates of kynuramine into 4-hydroxyquinoline. The appropriate amounts of hMAO-A and hMAO-B were adjusted to obtain, in our experimental conditions, the same maximum
All assays were performed in sodium phosphate buffer solution 50 mM pH 7.4.
The compounds under study and reference inhibitors were pre-incubated at 37 °C for 10
concentration: 2×Km) in 96-well microplates (BRANDplates, pureGradeTM, BRAND GMBH, Wertheim, Germany). Then, the reaction was started with the addition of hMAO-A or hMAO-B.
Initial velocities were determined spectrophotometrically in a microplate reader (BioTek Synergy HT from BioTek Instruments, Winooski, VT, USA) at 37 °C by measuring the formation of 4-
The initial velocities, obtained from the linear phase of product formation, were normalized and plotted against the respective inhibitor concentration. IC50 values were obtained from dose-response curves and were expressed as mean ± standard deviation. IC50 values were determined from at least three independent experiments, each performed in triplicate.

[1] = Differential pulse voltammetry (DPV); format: physicochemical; details: pH 7.4, glassy carbon electrode; for Ep (redox potential): first anodic peak
Description: DPV experiments were performed as described in literature (see supplementary information).
1.4. Electrochemical measurements
Voltammetric studies were carried out using an Autolab PGSTAT 12 potentiostat/galvanostat (Metrohm-Autolab, Netherlands) and one compartment glass electrochemical cell. The voltammetric data were acquired at room temperature using a three-electrode system: a glassy carbon working electrode (GCE) (d = 2 mm), a platinum wire counter electrode and an Ag/AgCl saturated KCl reference electrode (Metrohm, Switzerland). The working electrode was polished manually with an aqueous slurry of alumina powder (BDH Chemicals, VWR, USA) on a microcloth pad and rinsed with water before use. A Crison pH-meter with glass electrode was used for the pH measurements (Crison, Barcelona, Spain).
Differential pulse voltammetry (DPV) experiments were performed as described elsewhere. Test solutions were prepared directly in the electrochemical cell, by diluting ethanolic solutions of the compounds under study (10 mM, 100 μL) in the supporting electrolyte (10 mL) to obtain a final concentration of 100 μM. The scan rate used in differential pulse voltammetry (DPV) was 5 mV.s−1.
All reagents used were of analytical grade or of the highest grade available. Neutral red (NR) solution, resazurin, Dulbecco’s Modified Eagle’s Medium (DMEM) with 4.5 g/L glucose, retinoic acid, 12-O-tetradecanoylphorbol-13-acetate (TPA), 2’,7’-dichorofluorescein diacetate (DCFH-DA), Rhodamine 123 (RHO 123) and zosuquidar (ZOS) were obtained from Sigma Aldrich. Reagents used in cell culture such as heat-inactivated fetal bovine serum (FBS), antibiotic (10,000 U/mL penicillin, 10,000 μg/mL streptomycin), MEM Non-Essential Amino Acids solution (100×) (MEM NEAA), Hanks’ balanced salt solution (HBSS) with or without calcium and magnesium (HBSS(+/+) or HBSS (-/-), respectively) and 0.25% trypsin/1 mM ethylenediamine tetraacetic acid (EDTA) were purchased from Gibco Laboratories (Lenexa, KS, USA). Dimethylsulfoxide (DMSO), absolute ethanol, sodium bicarbonate and acetic acid were obtained from Merck (Darmstadt, Germany). Triton™ X-100 detergent solution was acquired from Thermo Fisher Scientific (Waltham, MA, USA).
Human neuroblastoma SH-SY5Y cells were routinely cultured into […] and maintained in DMEM with 4.5 g/L glucose, supplemented with 10 % heat-inactivated FBS (v/v), 1 % MEM NEAA (v/v) and 1% penicillin/streptomycin (v/v). Cells were maintained at 37 °C in a humidified, 5% CO2−95% air atmosphere, and the cell culture medium was changed every 2-3

T1 sequence (P06276 29-557 N45Q/N483Q/N509Q/N514Q limits assumed): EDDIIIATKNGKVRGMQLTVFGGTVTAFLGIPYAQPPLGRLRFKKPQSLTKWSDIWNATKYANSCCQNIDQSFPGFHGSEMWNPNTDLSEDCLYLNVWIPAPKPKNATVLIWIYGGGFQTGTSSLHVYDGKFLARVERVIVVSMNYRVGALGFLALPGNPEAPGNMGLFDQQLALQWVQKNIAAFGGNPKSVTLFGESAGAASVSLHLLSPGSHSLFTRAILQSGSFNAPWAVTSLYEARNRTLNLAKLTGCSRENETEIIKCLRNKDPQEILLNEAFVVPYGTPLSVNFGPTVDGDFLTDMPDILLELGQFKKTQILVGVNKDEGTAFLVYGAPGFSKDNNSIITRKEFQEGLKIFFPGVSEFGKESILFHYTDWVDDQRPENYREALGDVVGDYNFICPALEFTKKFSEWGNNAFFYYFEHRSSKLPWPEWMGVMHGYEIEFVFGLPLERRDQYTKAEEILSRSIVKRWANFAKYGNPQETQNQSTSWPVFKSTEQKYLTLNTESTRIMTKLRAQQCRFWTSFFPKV

| Compound | IC50 (hBChE) [µM] | SI (2): hBChE selectivity index = IC50(hAChE)/IC50(hBChE) (hBChE) | IC50 (hMAO-A) [µM] | Ep (redox potential), second overlapped anodic peak [1] [mV] | Ep (redox potential) [1] [mV] |
| --- | --- | --- | --- | --- | --- |
| O=C(/C=C/C=C/c1ccc2c(c1)OCO2)NCCCC[P+](c1ccccc1)(c1ccccc1)c1ccccc1.[Br-] [Compound 2, (4-((2E,4E)-5-(Benzo[d][1,3]dioxol-5-yl)penta-2,4-dienamido)butyl)triphenylphosphonium bromide] | 0.2 ± 0.04 | 55 | 0.888 ± 0.022 | 1070 | 942 |
| O=C(/C=C/C=C/c1ccc(O)c(O)c1)NCCCC[P+](c1ccccc1)(c1ccccc1)c1ccccc1.[Br-] [Compound 4, (4-((2E,4E)-5-(3,4-Dihydroxyphenyl)penta-2,4-dienamido)butyl)triphenylphosphonium bromide] | 3 ± 0.2 | 7.3 | 5.17 ± 0.54 |  | 125 |
| O=C(/C=C/C=C/c1ccc2c(c1)OCO2)NCCCCCC[P+](c1ccccc1)(c1ccccc1)c1ccccc1.[Br-] [Compound 3, (6-((2E,4E)-5-(Benzo[d][1,3]dioxol-5-yl)penta-2,4-dienamido)hexyl)triphenylphosphonium bromide] | 3 ± 0.4 | 0.67 | 1.23 ± 0.13 | 1083 | 931 |
| O=C(/C=C/C=C/c1ccc(O)c(O)c1)NCCCCCC[P+](c1ccccc1)(c1ccccc1)c1ccccc1.[Br-] [Compound 5, (6-((2E,4E)-5-(3,4-Dihydroxyphenyl)penta-2,4-dienamido)hexyl)triphenylphosphonium bromide] | 23 ± 2 | 0.39 | 2.17 ± 0.28 |  | 144 |
